Measured values as given in ChEMBL document CHEMBL1146945, “Quaternary salts of 4,3' and 4,4' bis-pyridinium monooximes. Part 2: synthesis and biological activity” (Bioorg Med Chem Lett, 2006).
Active and inactive are the calls of the source. The calls are words filed in the database; no cut-off is given here.

Experiments:
[1] = target: T1, Acetylcholinesterase (Mus musculus) (UniProt P21836); assay: Reactivation of TEPP inhibited AChE in mouse brain at 150 uM; format: functional, tissue-based
T1 sequence (whole entry): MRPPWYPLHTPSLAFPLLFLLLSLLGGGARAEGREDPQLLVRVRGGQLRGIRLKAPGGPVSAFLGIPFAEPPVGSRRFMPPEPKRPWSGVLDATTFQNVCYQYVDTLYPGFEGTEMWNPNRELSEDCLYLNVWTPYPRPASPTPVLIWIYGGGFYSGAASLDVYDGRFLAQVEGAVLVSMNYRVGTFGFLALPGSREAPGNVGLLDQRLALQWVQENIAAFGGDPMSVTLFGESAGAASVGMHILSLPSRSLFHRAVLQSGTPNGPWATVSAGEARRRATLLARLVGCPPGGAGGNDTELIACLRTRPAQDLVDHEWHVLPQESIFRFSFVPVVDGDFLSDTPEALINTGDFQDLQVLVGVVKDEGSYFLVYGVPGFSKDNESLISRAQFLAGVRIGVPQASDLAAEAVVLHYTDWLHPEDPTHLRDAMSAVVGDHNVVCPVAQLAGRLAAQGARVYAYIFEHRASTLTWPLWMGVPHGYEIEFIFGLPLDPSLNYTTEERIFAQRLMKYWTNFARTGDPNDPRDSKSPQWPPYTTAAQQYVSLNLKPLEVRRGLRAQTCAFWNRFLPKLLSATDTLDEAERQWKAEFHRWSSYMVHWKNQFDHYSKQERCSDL

[2] = target: T1, Acetylcholinesterase (Mus musculus); assay: Reactivation of TEPP inhibited AChE in mouse brain at 200 uM; format: functional, tissue-based
[3] = target: T1, Acetylcholinesterase (Mus musculus); assay: Reactivation of TEPP inhibited AChE in mouse brain at 50 uM; format: functional, tissue-based
[4] = target: T1, Acetylcholinesterase (Mus musculus); assay: Reactivation of TEPP inhibited AChE in mouse brain at 100 uM; format: functional, tissue-based; design: scale not given: the % may be the effect or the level left
[5] = target: T1, Acetylcholinesterase (Mus musculus); assay: Reactivation of TEPP inhibited AChE in mouse brain at 250 uM; format: functional, tissue-based
[6] = target: T1, Acetylcholinesterase (Mus musculus); assay: Reactivation of TEPP inhibited AChE in mouse brain at 300 uM; format: functional, tissue-based
[7] = target: T1, Acetylcholinesterase (Mus musculus); assay: Potentiation of inhibition of AChE by TEPP in mouse brain at 300 uM; format: functional, tissue-based
[8] = target: T1, Acetylcholinesterase (Mus musculus); assay: Potentiation of inhibition of AChE by TEPP in mouse brain at 100 uM; format: functional, tissue-based
[9] = target: T1, Acetylcholinesterase (Mus musculus); assay: Reactivation of TEPP inhibited mouse brain AChE at 30 uM; format: functional; design: scale not given: the % may be the effect or the level left

Structure (SMILES)	Activity [1]	Activity [2]	Activity [3]	Activity [4]	Activity [5]	Activity [6]	Activity [7]	Activity [8]	Activity [9]
O/N=C/c1cc[n+](CCCCCCCC[n+]2ccc(/C=N/O)cc2)cc1	inactive	inactive	inactive	inactive	inactive	inactive			
NC(=O)c1ccc[n+](CCCCCCC[n+]2ccc(/C=N/O)cc2)c1							Active	Active	23%
NC(=O)c1cc[n+](CCCCCCC[n+]2ccc(/C=N/O)cc2)cc1							Active	Active	15%
O/N=C/c1cc[n+](CCCCCCC[n+]2ccc(/C=N/O)cc2)cc1				14%			Active		39%
NC(=O)c1cc[n+](CCCCCCCC[n+]2ccc(/C=N/O)cc2)cc1	inactive	inactive	inactive	inactive	inactive	inactive			
NC(=O)c1ccc[n+](CCCCCCCC[n+]2ccc(/C=N/O)cc2)c1	inactive	inactive	inactive	inactive	inactive	inactive			
NC(=O)c1cc[n+](CCCCCCCCC[n+]2ccc(/C=N/O)cc2)cc1	inactive	inactive	inactive	inactive	inactive	inactive			
NC(=O)c1ccc[n+](CCCCCCCCC[n+]2ccc(/C=N/O)cc2)c1	inactive	inactive	inactive	inactive	inactive	inactive			
O/N=C/c1cc[n+](CCCCCCCCC[n+]2ccc(/C=N/O)cc2)cc1	inactive	inactive	inactive	inactive	inactive	inactive			
